Test results reported in patent US20230089247A1, “NOVEL COMPOUNDS SUITABLE FOR THE TREATMENT OF DYSLIPIDEMIA” (ZYDUS LIFESCIENCES LIMITED, priority 2019, published 2023).

Target: PCSK9 (Homo sapiens, UniProt Q8NBP7)
Test: BODIPY-LDL uptake assay in HepG2 cells
Format: cell-based
Settings: 5 μg/ml PCSK9, BODIPY-LDL
Description: BODIPY-LDL Uptake Assay in HepG2 Cells.
An established assay for PCSK9 inhibition features uptake of fluorescently labeled LDL nanoparticles (BODIPY-LDL) by hepatocytes and uptake of the BODIPY-containing particles is maximized in the absence of PCSK9.
In the LDL uptake assay, HepG2 cells were seeded at a density of 6×10^4 cells/well in a 96-well plate. After 24 h, the test compounds at various concentrations were pre-incubated with 5 μg/ml PCSK9 in 0.2% DMSO for 60 min prior to the addition on to the cells. After 16 h the medium was removed and 1 μg/ml BODIPY-LDL (Invitrogen) in serum free media was added and incubated for 5 h. Then the cells were washed twice with 0.25% BSA in PBS. Then the fluorescence of the cells in PBS was measured using TECAN multimode reader (Excitation: 485 nm and Emission: 520 nm). The readings were taken in triplicate and the final values were normalized with the protein concentration from respective wells. The wells without test compound containing external PCSK9 is considered as zero uptake and the one without PCSK9 was considered as 100% uptake. The percentage increase in LDL uptake for the test compounds were calculated using these values.

PCSK9, sequence (Q8NBP7 153-692): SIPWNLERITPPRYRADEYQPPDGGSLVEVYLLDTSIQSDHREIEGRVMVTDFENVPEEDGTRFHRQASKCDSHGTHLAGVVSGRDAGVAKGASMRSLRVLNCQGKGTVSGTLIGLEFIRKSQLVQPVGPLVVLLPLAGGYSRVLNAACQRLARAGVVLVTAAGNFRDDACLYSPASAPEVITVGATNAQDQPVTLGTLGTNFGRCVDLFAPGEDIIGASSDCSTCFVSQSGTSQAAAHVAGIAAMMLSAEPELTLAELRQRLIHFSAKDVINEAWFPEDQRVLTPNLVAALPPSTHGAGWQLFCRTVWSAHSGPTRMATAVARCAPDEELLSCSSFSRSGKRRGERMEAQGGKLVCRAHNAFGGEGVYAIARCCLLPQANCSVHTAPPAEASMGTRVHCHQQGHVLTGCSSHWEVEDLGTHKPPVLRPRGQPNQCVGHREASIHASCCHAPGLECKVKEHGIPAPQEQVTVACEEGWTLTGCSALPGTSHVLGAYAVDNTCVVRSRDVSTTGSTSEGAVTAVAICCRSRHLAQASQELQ

| Compound | % increase in LDL Uptake (1 μM test compound) | % increase in LDL Uptake (10 μM test compound) | % increase in LDL Uptake (30 μM test compound) |
| --- | --- | --- | --- |
| O=C(c1ccc(C2(O)COC2)cc1)N1CCC(c2ccc(C(F)(F)F)cc2)C1 (stereo not drawn) [Example 102, (4-(3-hydroxyoxetan-3-yl)phenyl)(3-(4-(trifluoromethyl)phenyl)pyrrolidin-1-yl)methanone] | 4% | 31% | 25% |
| CCOC1(c2ccc(C(=O)N3CC4=C(C3)CN(c3ccc(C(F)(F)F)cc3)C4)cc2)COC1 [Example 104, (4-(3-ethoxyoxetan-3-yl)phenyl)(5-(4-(trifluoromethyl)phenyl)-3,4,5,6-tetrahydropyrrolo[3,4-c]pyrrol-2(1H)-yl)methanone] | 1% | 30% | 18% |
| O=C(c1ccc(C2(O)COC2)cc1)N1CCc2cc(-c3ccc(C(F)(F)F)cc3)ccc21 [Example 107, (4-(3-hydroxyoxetan-3-yl)phenyl)(5-(4-(trifluoromethyl)phenyl)indolin-1-yl)methanone] | 27% | 0% | 0% |
| COC1(c2ccc(C(=O)N3CCC(c4ccc(C(F)(F)F)c(-n5cnc(C)c5)c4)CC3)cc2)COC1 [Example 108, (4-(3-methoxyoxetan-3-yl)phenyl)(4-(3-(4-methyl-1H-imidazol-1-yl)-4-(trifluoromethyl)phenyl)piperidin-1-yl)methanone] | 9% | 26% | 32% |
| CC(C)(CCCCCOC1(c2ccc(C(=O)N3CCC(c4ccc(C(F)(F)F)cc4)CC3)cc2)COC1)C(=O)O [Example 109, 2,2-dimethyl-7-((3-(4-(4-(4-(trifluoromethyl)phenyl)piperidine-1-carbonyl)phenyl)oxetan-3-yl)oxy)heptanoic acid] | 5% | 29% | 31% |
| N#CC1(c2ccc(C(F)(F)F)cc2)CCN(C(=O)c2ccc(C3(O)COC3)cc2)CC1 [Example 116, 1-(4-(3-hydroxyoxetan-3-yl)benzoyl)-4-(4-(trifluoromethyl)phenyl)piperidine-4-carbonitrile] | 7% | 35% | 98% |
| O=C(c1cccc(C2(O)COC2)c1)N1CCC(c2ccc(C(F)(F)F)c(F)c2)CC1 [Example 121, (4-(3-fluoro-4-(trifluoromethyl)phenyl)piperidin-1-yl)(3-(3-hydroxyoxetan-3-yl)phenyl)methanone] | 0% | 22% | 18% |
| O=C(c1cccc(C2(O)COC2)c1)N1CCC(c2ccccc2C(F)(F)F)CC1 [Example 122, (3-(3-hydroxyoxetan-3-yl)phenyl)(4-(2-(trifluoromethyl)phenyl)piperidin-1-yl)methanone] | 0% | 16% | 12% |
| CCOC1(c2ccc(C(=O)N3CCCC(c4ccc(C(F)(F)F)cc4)C3)cc2)COC1 (stereo not drawn) [Example 123, (4-(3-ethoxyoxetan-3-yl)phenyl)(3-(4-(trifluoromethyl)phenyl)piperidin-1-yl)methanone] | 0% | 14% | 30% |
| Cc1ccc(C2=CC3CN(C(=O)c4ccc(C5(O)COC5)cc4)CC3C2)cc1 (stereo not drawn) [Example 130, (4-(3-hydroxyoxetan-3-yl)phenyl)(5-(p-tolyl)-3,3a,6,6a-tetrahydrocyclopenta[c]pyrrol-2(1H)-yl)methanone] | −19% | 20% | 74% |
| CSc1ccc(C2=CC3CN(C(=O)c4ccc(C5(O)COC5)cc4)CC3C2)cc1 (stereo not drawn) [Example 131] | −5% | 57% | −1% |
| O=C(c1ccc(C2(OCC3CC3)COC2)cc1)N1CC2CN(c3ccc(C(F)(F)F)cc3)CC2C1 (stereo not drawn) [Example 133, (4-(3-(cyclopropylmethoxy)oxetan-3-yl)phenyl)(5-(4-(trifluoromethyl)phenyl)hexahydropyrrolo[3,4-c]pyrrol-2(1H)-yl)methanone] | 22% | 28% | 32% |
| CC(C)COC1(c2ccc(C(=O)N3CC4CN(c5ccc(C(F)(F)F)cc5)CC4C3)cc2)COC1 (stereo not drawn) [Example 135, (4-(3-isobutoxyoxetan-3-yl)phenyl)(5-(4-(trifluoromethyl)phenyl)hexahydropyrrolo[3,4-c]pyrrol-2(1H)-yl)methanone] | 5% | 17% | 47% |
| CC(C)OC1(c2ccc(C(=O)N3CC4CN(c5ccc(C(F)(F)F)cc5)CC4C3)cc2)COC1 (stereo not drawn) [Example 136, (4-(3-isopropoxyoxetan-3-yl)phenyl)(5-(4-(trifluoromethyl)phenyl)hexahydropyrrolo[3,4-c]pyrrol-2(1H)-yl)methanone] | 11% | 12% | 14% |
| COCCOC1(c2ccc(C(=O)N3CC4CN(c5ccc(C(F)(F)F)cc5)CC4C3)cc2)COC1 (stereo not drawn) [Example 137, (4-(3-(2-methoxyethoxy)oxetan-3-yl)phenyl)(5-(4-(trifluoromethyl)phenyl)hexahydropyrrolo[3,4-c]pyrrol-2(1H)-yl)methanone] | 0% | 66% | 116% |
| O=C(c1ccc(C2(O)CCNCC2)cc1)N1CCC(c2ccc(C(F)(F)F)cc2)CC1 [Example 141, (4-(4-hydroxypiperidin-4-yl)phenyl)(4-(4-(trifluoromethyl)phenyl)piperidin-1-yl)methanone] | 0% | 0% | 28% |
| COC1(c2ccc(C(=O)N3CCC(c4ccc(C(F)(F)F)cc4)CC3)cc2)CCOCC1 [Example 143, (4-(4-methoxytetrahydro-2H-pyran-4-yl)phenyl)(4-(4-(trifluoromethyl)phenyl)piperidin-1-yl)methanone] | 0% | 41% | 28% |
| O=C(c1ccc(C2(O)CSC2)cc1)N1CCC(c2ccc(C(F)(F)F)cc2)CC1 [Example 145, (4-(3-hydroxythietan-3-yl)phenyl)(4-(4-(trifluoromethyl)phenyl)piperidin-1-yl)methanone] | 2% | 70% | 0% |
| O=C(c1ccc(C2(O)CSC2)cc1)N1CC2CN(c3ccc(C(F)(F)F)cc3)CC2C1 (stereo not drawn) [Example 146, (4-(3-hydroxythietan-3-yl)phenyl)(5-(4-(trifluoromethyl)phenyl)hexahydropyrrolo[3,4-c]pyrrol-2(1H)-yl)methanone] | 53% | 212% | 29% |
| CCOC1(c2ccc(C(=O)N3CCC(c4ccc(C(F)(F)F)cc4)CC3)cc2)CSC1 [Example 148, (4-(3-ethoxythietan-3-yl)phenyl)(4-(4-(trifluoromethyl)phenyl)piperidin-1-yl)methanone] | 20% | 3% | 11% |
| COC1(c2ccc(C(=O)N3CC4CN(c5ccc(C(F)(F)F)cc5)CC4C3)cc2)CSC1 (stereo not drawn) [Example 149, (4-(3-methoxythietan-3-yl)phenyl)(5-(4-(trifluoromethyl)phenyl)hexahydropyrrolo[3,4-c]pyrrol-2(1H)-yl)methanone] | 0% | 30% | 9% |
| CCOC1(c2ccc(C(=O)N3CC4CN(c5ccc(C(F)(F)F)cc5)CC4C3)cc2)CSC1 (stereo not drawn) [Example 150, (4-(3-ethoxythietan-3-yl)phenyl)(5-(4-(trifluoromethyl)phenyl)hexahydropyrrolo[3,4-c]pyrrol-2(1H)-yl)methanone] | 0% | 5% | 25% |
| CC(C)(C)OC(=O)N1CCC(O)(c2ccc(C(=O)N3CCC(c4ccc(C(F)(F)F)cc4)CC3)cc2)C1 (stereo not drawn) [Example 151, tert-butyl 3-hydroxy-3-(4-(4-(4-(trifluoromethyl)phenyl)piperidine-1-carbonyl)phenyl)pyrrolidine-1-carboxylate] | 34% | 0% | 0% |
| O=C(c1ccc(C2(O)CCNC2)cc1)N1CCC(c2ccc(C(F)(F)F)cc2)CC1 (stereo not drawn) [Example 152, (4-(3-hydroxypyrrolidin-3-yl)phenyl)(4-(4-(trifluoromethyl)phenyl)piperidin-1-yl)methanone] | 0% | 0% | 31% |
| COC1(c2ccc(C(=O)N3CCC(c4ccc(C(F)(F)F)cc4)CC3)cc2)CCNC1 (stereo not drawn) [Example 153, (4-(3-methoxypyrrolidin-3-yl)phenyl)(4-(4-(trifluoromethyl)phenyl)piperidin-1-yl)methanone] | 0% | 47% | 46% |
